Measurements taken from patent US9765049B2, “N-cycloalkyl-N-[(fusedphenyl)methylene]-(thio)carboxamide derivatives” (BAYER CROPSCIENCE AG, priority 2013, dated 2017).
Where two headings read alike, the source gives them in different places. Each block holds one molecule with its values, some of them ahead of it.

Key:
[1] = log P by HPLC on reversed-phase column (C 18), EEC Directive 79/831 Annex V.A8; assay type: physicochemical; conditions: for logP: Table 1, 40° C.
Experimental: In table 1, the log P values were determined in accordance with EEC Directive 79/831 Annex V.A8 by HPLC (High Performance Liquid Chromatography) on a reversed-phase column (C 18), using the method described below: Temperature: 40° C.; Mobile phases: 0.1% aqueous formic acid and acetonitrile; linear gradient from 10% acetonitrile to 90% acetonitrile. Calibration was carried out using unbranched alkan-2-ones (comprising 3 to 16 carbon atoms) with known log P values (determination of the log P values by the retention times using linear interpolation between two successive alkanones). lambda-max-values were determined using UV-spectra from 200 nm to 400 nm and the peak values of the chromatographic signals.

Botrytis cinerea = assay: In vivo preventive test Botrytis cinerea (grey mould); conditions: gherkin plants
Experimental: (§1) Example B: In Vivo Preventive Test Botrytis cinerea (Grey Mould) [table] The active ingredients are made soluble and homogenized in a mixture of Dimethyl sulfoxide/Acetone/Tween®80 and then diluted in water to the desired concentration. The young plants of gherkin are treated by spraying the active ingredient prepared as described above. Control plants are treated only with an aqueous solution of Acetone/Dimethyl sulfoxide/Tween® 80. After 24 hours, the plants are contaminated by spraying the leaves with an aqueous suspension of Botrytis cinerea spores. The contaminated gherkin plants are incubated for 4 to 5 days at 17° C. and at 90% relative humidity.

Puccinia recondita = assay: In vivo preventive test on Puccinia recondita (brown rust on wheat); conditions: 500 ppm, wheat plants, preventive spray, evaluated 11 days after inoculation
Experimental: as §1, with “C:” for “B:”, “on Puccinia recondita (Brown Rust on Wheat)” for “Botrytis cinerea (Grey Mould)”, “wheat” for “gherkin”, “Puccinia recondita” for “Botrytis cinerea”, “spores.” for “spores. The contaminated gherkin plants are incubated for 4 to 5 days at 17° C. and at 90% relative humidity.”

Septoria tritici = assay: In vivo preventive test on Septoria tritici (wheat); conditions: 500 ppm, wheat plants, preventive spray, evaluated 24 days after inoculation
Experimental: as §1, with “E:” for “B:”, “on Septoria tritici (Wheat)” for “Botrytis cinerea (Grey Mould)”, “wheat” for “gherkin”, “Septoria tritici” for “Botrytis cinerea”, “72 hours at 18° C. and at 100% relative humidity and then for 21” for “4 to 5”, “20°” for “17°”

Sphaerotheca fuliginea = assay: In vivo preventive test on Sphaerotheca fuliginea (powdery mildew on cucurbits); conditions: 500 ppm, gherkin plants, preventive spray, evaluated 15 days after inoculation
Experimental: as §1, with “F:” for “B:”, “on Sphaerotheca fuliginea (Powdery Mildew on Cucurbits)” for “Botrytis cinerea (Grey Mould)”, “Sphaerotheca fuliginea” for “Botrytis cinerea”, “spores.” for “spores. The contaminated gherkin plants are incubated for 4 to 5 days at 17° C. and at 90% relative humidity.”

[2] = system: Fusarium nivale (var. majus); assay: Efficacy against Fusarium nivale (var. majus) (wheat), curative test; assay type: in vivo; conditions: evaluated 5 days after inoculation
Experimental: Example I: Efficacy Against Fusarium nivale (Var. Majus) (Wheat) [table] To produce a suitable preparation of active compound, 1 part by weight of active compound or active compound combination is mixed with the stated amounts of solvent and emulsifier, and the concentrate is diluted with water to the desired concentration. […] After the spray coating has dried on, the plants remain in a greenhouse under translucent incubation cloches at a temperature of approximately 10° C. and a relative atmospheric humidity of approximately 100%.

Pyrenophora teres = assay: In vivo preventive test on Pyrenophora teres (net blotch on barley); conditions: 500 ppm, barley plants, preventive spray, evaluated 14 days after inoculation
Experimental: as §1, with “D:” for “B:”, “on Pyrenophora teres (Net Blotch on Barley)” for “Botrytis cinerea (Grey Mould)”, “barley” for “gherkin”, “Pyrenophora teres” for “Botrytis cinerea”, “spores.” for “spores. The contaminated gherkin plants are incubated for 4 to 5 days at 17° C. and at 90% relative humidity.”

Uromyces appendiculatus = assay: In vivo preventive test on Uromyces appendiculatus (bean rust); conditions: Table G; 500 ppm, bean plants, preventive spray, evaluated 11 days after inoculation
Experimental: as §1, with “G:” for “B:”, “on Uromyces appendiculatus (Bean Rust)” for “Botrytis cinerea (Grey Mould)”, “bean” for “gherkin”, “Uromyces appendiculatus” for “Botrytis cinerea”, “spores.” for “spores. The contaminated gherkin plants are incubated for 4 to 5 days at 17° C. and at 90% relative humidity.”

[3] = reversed-phase HPLC column (C 18), Table 3 (aldehydes of formula IV), HPLC, 0.1% aqueous formic acid and acetonitrile, read-out: logP
[4] = HPLC, 0.1% aqueous formic acid and acetonitrile
[5] = Table B, 500 ppm, preventive spray, evaluated 4 to 5 days after inoculation
[6] = reversed-phase HPLC column (C 18), Table 2 (amines of formula IIa), HPLC, 0.1% aqueous formic acid and acetonitrile, read-out: logP

chromatographic logP [1, 3]: 3.13
SMILES: O=Cc1cccc2c1C1CCC2C1 (stereo not shown) [IV.1, 1,2,3,4-tetrahydro-1,4-methanonaphthalene-5-carbaldehyde]

SMILES: Cn1cc(C(=O)N(Cc2cccc3c2CCCC3)C2CC2)c(C(F)F)n1 [CMP3, N-cyclopropyl-3-(difluoromethyl)-1-methyl-N-(5,6,7,8-tetrahydronaphthalen-1-ylmethyl)-1H-pyrazole-4-carboxamide, reference compound]
Efficacy (Botrytis cinerea; Table B2, dose 100 ppm): 0% | Efficacy (Botrytis cinerea; Table B2, dose 500 ppm): 0%

SMILES: Cn1cc(C(=S)N(Cc2cccc3c2C2CCC3C2=C(Cl)Cl)C2CC2)c(C(F)F)n1 (stereo not shown) [I.10]
logP [1, 4]: 4.83 | Efficacy (Botrytis cinerea; [5]): 100% | Efficacy (Puccinia recondita): 88% | Efficacy (Septoria tritici): 100% | Efficacy (Sphaerotheca fuliginea): 100%

SMILES: Cc1nn(C)c(F)c1C(=O)N(Cc1cccc2c1CCCC2)C1CC1 [CMP2, N-cyclopropyl-5-fluoro-1,3-dimethyl-N-(5,6,7,8-tetrahydronaphthalen-1-ylmethyl)-1H-pyrazole-4-carboxamide, reference compound]
Efficacy (Botrytis cinerea; Table B2, dose 100 ppm): 0% | Efficacy (Botrytis cinerea; Table B2, dose 500 ppm): 35%

chromatographic logP [1]: 1.95
SMILES: ClC(Cl)=C1C2CCC1c1c(CNC3CC3)cccc12 (stereo not shown) [IIa.3, N-{[9-(dichloromethylene)-1,2,3,4-tetrahydro-1,4-methanonaphthalen-5-yl]methyl}-cyclopropanamine]

chromatographic logP [1, 6]: 1.31
SMILES: c1cc(CNC2CC2)c2c(c1)C1CCC2C1 (stereo not shown) [IIa.1, N-(1,2,3,4-tetrahydro-1,4-methanonaphthalen-5-ylmethyl)cyclopropanamine]

chromatographic logP [1, 3]: 1.66
SMILES: O=Cc1cccc2c1C1CCC2O1 (stereo not shown) [IV.4, 1,2,3,4-tetrahydro-1,4-epoxynaphthalene-5-carbaldehyde]

SMILES: CC1CCc2cccc(C(C)N(C(=O)c3c(C(F)F)nn(C)c3F)C3CC3)c2C1 (stereo not shown) [50 from WO-2010/130767, N-cyclopropyl-3-(difluoromethyl)-5-fluoro-1-methyl-N-[1-(7-methyl-5,6,7,8-tetrahydronaphthalen-1-yl)ethyl]-1H-pyrazole-4-carboxamide]
Efficacy ([2]; dose 250 ppm): 67% | Efficacy ([2]; dose 500 ppm): 67%

chromatographic logP [1, 3]: 1.5
SMILES: O=Cc1cccc2c1C1C=CC2O1 (stereo not shown) [IV.5, 1,4-dihydro-1,4-epoxynaphthalene-5-carbaldehyde]

SMILES: Cc1cc(C(=O)N(Cc2cccc3c2C2CCC3O2)C2CC2)c(C)o1 (stereo not shown) [I.22]
logP [1, 4]: 3.04

chromatographic logP [1]: 4.09
SMILES: O=Cc1cccc2c1C1CCC2C1=C(Cl)Cl (stereo not shown) [IV.3, 9-(dichloromethylene)-1,2,3,4-tetrahydro-1,4-methanonaphthalene-5-carbaldehyde]

SMILES: O=C(c1ccsc1Br)N(Cc1cccc2c1C1C=CC2O1)C1CC1 (stereo not shown) [I.21]
logP [1, 4]: 2.96

SMILES: Cc1nn(C)c(F)c1C(=O)N(C1CC1)C(C)c1cccc2c1CCCC2 (stereo not shown) [CMP4, N-cyclopropyl-5-fluoro-1,3-dimethyl-N-[1-(5,6,7,8-tetrahydronaphthalen-1-yl)ethyl]-1H-pyrazole-4-carboxamide]
Efficacy ([2]; dose 250 ppm): 29% | Efficacy ([2]; dose 500 ppm): 57%

SMILES: Cc1nc(C(F)F)c(C(=O)N(Cc2cccc3c2C2C=CC3O2)C2CC2)s1 (stereo not shown) [I.18]
logP [1, 4]: 2.51

SMILES: Cn1nc(C(F)F)c(C(=O)N(Cc2cccc3ccccc23)C2CC2)c1F [CMP1, N-cyclopropyl-3-(difluoromethyl)-5-fluoro-1-methyl-N-(1-naphthylmethyl)-1H-pyrazole-4-carboxamide, reference compound]
Efficacy (Botrytis cinerea; Table B2, dose 100 ppm): 10% | Efficacy (Botrytis cinerea; Table B2, dose 500 ppm): 70%

chromatographic logP [1, 6]: 0.13
SMILES: C1=CC2OC1c1cccc(CNC3CC3)c12 (stereo not shown) [IIa.5, N-(1,4-dihydro-1,4-epoxynaphthalen-5-ylmethyl)cyclopropanamine]

SMILES: Cn1nc(C(F)F)c(C(=O)N(Cc2cccc3c2C2C=CC3C2)C2CC2)c1Cl (stereo not shown) [I.05]
logP [1, 4]: 3.70 | Efficacy (Puccinia recondita): 94% | Efficacy (Septoria tritici): 81% | Efficacy (Sphaerotheca fuliginea): 72%

SMILES: Cn1cc(C(=O)N(Cc2cccc3c2C2C=CC3C2)C2CC2)c(C(F)F)n1 (stereo not shown) [I.03]
logP [1, 4]: 3.19 | Efficacy (Sphaerotheca fuliginea): 98% | Efficacy (Pyrenophora teres): 88%

SMILES: Cn1nc(C(F)F)c(C(=O)N(Cc2cccc3c2C2CCC3C2=C(Cl)Cl)C2CC2)c1Cl (stereo not shown) [I.06]
logP [1, 4]: 4.66 | Efficacy (Septoria tritici): 71% | Efficacy (Sphaerotheca fuliginea): 95% | Efficacy (Pyrenophora teres): 71%

chromatographic logP [1, 3]: 2.73
SMILES: O=Cc1cccc2c1C1C=CC2C1 (stereo not shown) [IV.2, 1,4-dihydro-1,4-methanonaphthalene-5-carbaldehyde]

SMILES: Cn1nc(C(F)F)c(C(=O)N(Cc2cccc3c2C2CCC3O2)C2CC2)c1F (stereo not shown) [I.12]
logP [1, 4]: 2.55 | Efficacy (Botrytis cinerea; [5]): 99% | Efficacy (Puccinia recondita): 89% | Efficacy (Septoria tritici): 100% | Efficacy (Sphaerotheca fuliginea): 100%

SMILES: Cc1nn(C)c(F)c1C(=O)N(C1CC1)C(C)c1cccc2c1CCC(C)(C)C2 (stereo not shown) [CMP5, N-cyclopropyl-N-[1-(6,6-dimethyl-5,6,7,8-tetrahydronaphthalen-1-yl)ethyl]-5-fluoro-1,3-dimethyl-1H-pyrazole-4-carboxamide]
Efficacy ([2]; dose 250 ppm): 44% | Efficacy ([2]; dose 500 ppm): 56%

SMILES: Cn1nc(C(F)F)c(C(=S)N(Cc2cccc3c2C2C=CC3O2)C2CC2)c1F (stereo not shown) [I.19]
logP [1, 4]: 3.04

SMILES: Cc1cc(C(=O)N(Cc2cccc3c2C2C=CC3O2)C2CC2)c(C)o1 (stereo not shown) [I.16]
logP [1, 4]: 2.82 | Efficacy (Septoria tritici): 81%

SMILES: Cn1nc(C(F)F)c(C(=S)N(Cc2cccc3c2C2CCC3C2=C(Cl)Cl)C2CC2)c1Cl (stereo not shown) [I.09]
logP [1, 4]: 5.39 | Efficacy (Sphaerotheca fuliginea): 98% | Efficacy (Uromyces appendiculatus): 78%

SMILES: Cn1nc(C(F)F)c(C(=O)N(Cc2cccc3c2C2C=CC3O2)C2CC2)c1F (stereo not shown) [I.14]
logP [1, 4]: 2.31 | Efficacy (Septoria tritici): 98% | Efficacy (Sphaerotheca fuliginea): 94% | Efficacy (Pyrenophora teres): 75%

SMILES: Cn1cc(C(=O)N(Cc2cccc3c2C2C=CC3O2)C2CC2)c(C(F)F)n1 (stereo not shown) [I.15]
logP [1, 4]: 2.05 | Efficacy (Sphaerotheca fuliginea): 72%

SMILES: Cn1nc(C(F)F)c(C(=O)N(Cc2cccc3c2C2C=CC3O2)C2CC2)c1Cl (stereo not shown) [I.13]
logP [1, 4]: 2.42

SMILES: Cn1nc(C(F)F)c(C(=S)N(Cc2cccc3c2C2C=CC3O2)C2CC2)c1Cl (stereo not shown) [I.20]
logP [1, 4]: 3.17

chromatographic logP [1, 6]: 1.13
SMILES: C1=CC2CC1c1cccc(CNC3CC3)c12 (stereo not shown) [IIa.2, N-(1,4-dihydro-1,4-methanonaphthalen-5-ylmethyl)cyclopropanamine]

chromatographic logP [1, 6]: 0.45
SMILES: c1cc(CNC2CC2)c2c(c1)C1CCC2O1 (stereo not shown) [IIa.4, N-(1,2,3,4-tetrahydro-1,4-epoxynaphthalen-5-ylmethyl)cyclopropanamine]

SMILES: Cn1cc(C(=O)N(Cc2cccc3c2C2C=CC3O2)C2CC2)c(C(F)(F)F)c1 (stereo not shown) [I.17]
logP [1, 4]: 2.70
